# How the values were obtained:
# Assay type in all cases: functional
# [1] = system: Mycobacterium tuberculosis; test: Antitubercular activity against isoniazid/ethionamide-resistant Mycobacterium tuberculosis NIH1B21 assessed as inhibition of bacterial growth incubated for 2 weeks; conditions: NIH1B21, 336 h
# [2] = system: Mycobacterium tuberculosis; test: Antitubercular activity against isonizaid/rifampicin/ethambutol/rifabutin-resistant Mycobacterium tuberculosis NIH_G269DR assessed as inhibition of bacterial growth incubated for 2 weeks; conditions: 336 h
# [3] = system: Mycobacterium tuberculosis; test: Antitubercular activity against isoniazid/rifampicin/para-aminosalicylic acid/ofloxacin/prothionamide-resistant Mycobacterium tuberculosis NIHB67 assessed as inhibition of bacterial growth incubated for 2 weeks; conditions: NIHB67, 336 h
# [4] = system: Mycobacterium tuberculosis; test: Antitubercular activity against isoniazid/rifampicin/ethambutol/rifabutin-resistant Mycobacterium tuberculosis NIH_G10R assessed as inhibition of bacterial growth incubated for 2 weeks; conditions: 336 h
# [5] = system: Mycobacterium tuberculosis; test: Antitubercular activity against isoniazid/prothionamide-resistant Mycobacterium tuberculosis NIHA38 assessed as inhibition of bacterial growth incubated for 2 weeks; conditions: NIHA38, 336 h
# [6] = system: Mycobacterium tuberculosis; test: Antitubercular activity against isoniazid/rifampicin/pyrazinamide/prothionamide/rifabutin/ofloxacin/moxifloxacin/levofloxacin-resistant Mycobacterium tuberculosis NIHB188 assessed as inhibition of bacterial growth incubated for 2 weeks; conditions: NIHB188, 336 h
# [7] = system: Mycobacterium tuberculosis; test: Antitubercular activity against isonizaid/rifampicin/ethionamide/prothionamide-resistant Mycobacterium tuberculosis NIHA48 assessed as inhibition of bacterial growth incubated for 2 weeks; conditions: NIHA48, 336 h
# [8] = system: Mycobacterium tuberculosis; test: Antitubercular activity against isoniazid/rifampicin/streptomycin-resistant Mycobacterium tuberculosis clinical strain 01291696 assessed as inhibition of bacterial growth incubated for 2 weeks; conditions: Mycobacterium tuberculosis, 01291696, 336 h
# [9] = system: Mycobacterium tuberculosis; test: Antitubercular activity against isoniazid/prothionamide-resistant Mycobacterium tuberculosis NIHB140 assessed as inhibition of bacterial growth incubated for 2 weeks; conditions: NIHB140, 336 h
# [10] = system: Mycobacterium tuberculosis; test: Antitubercular activity against isoniazid/rifampicin/para-aminosalicylic acid/pyrazinamide/prothionamide/rifabutin-resistant Mycobacterium tuberculosis NIHB68 assessed as inhibition of bacterial growth incubated for 2 weeks; conditions: NIHB68, 336 h
# [11] = system: Mycobacterium tuberculosis; test: Antitubercular activity against isoniazid/rifampicin/ethambutol/rifabutin-resistant Mycobacterium tuberculosis K22b00MR assessed as inhibition of bacterial growth incubated for 2 weeks; conditions: 336 h
# [12] = system: Mycobacterium tuberculosis; test: Antitubercular activity against isoniazid/rifampicin/ethambutol/pyrazinamide/streptomycin/kanamycin-resistant Mycobacterium tuberculosis K20b00MR assessed as inhibition of bacterial growth incubated for 2 weeks; conditions: 336 h
# [13] = system: Mycobacterium tuberculosis; test: Antitubercular activity against extensively drug-resistant Mycobacterium tuberculosis NIH1B178 assessed as inhibition of bacterial growth incubated for 2 weeks; conditions: NIH1B178, 336 h
# [14] = system: Mycobacterium tuberculosis; test: Antitubercular activity against isoniazid/rifampicin/moxifloxacin-resistant Mycobacterium tuberculosis NIH_G76MR assessed as inhibition of bacterial growth incubated for 2 weeks; conditions: 336 h
# [15] = system: Mycobacterium tuberculosis; test: Antitubercular activity against extensively drug-resistant Mycobacterium tuberculosis clinical strain 00202293 assessed as inhibition of bacterial growth incubated for 2 weeks; conditions: Mycobacterium tuberculosis, 00202293, 336 h
# [16] = system: Mycobacterium tuberculosis; test: Antitubercular activity against isonizaid/rifampicin/ethambutol/rifabutin/D-cycloserine-resistant Mycobacterium tuberculosis NIH_G21R assessed as inhibition of bacterial growth incubated for 2 weeks; conditions: 336 h
# [17] = system: Mycobacterium tuberculosis; test: Antitubercular activity against isoniazid/rifampicin/ethambutol/pyrazinamid/rifabutin-resistant Mycobacterium tuberculosis K26b00MR assessed as inhibition of bacterial growth incubated for 2 weeks; conditions: 336 h
# [18] = system: Mycobacterium tuberculosis; test: Antitubercular activity against isoniazid/rifampicin/ethambutol/pyrazinamide/rifabutin/prothionamide-resistant Mycobacterium tuberculosis NIHB302 assessed as inhibition of bacterial growth incubated for 2 weeks; conditions: NIHB302, 336 h
# [19] = system: Mycobacterium tuberculosis; test: Antitubercular activity against isoniazid/rifampicin/ethambutol/rifabutin-resistant Mycobacterium tuberculosis K18b01MR assessed as inhibition of bacterial growth incubated for 2 weeks; conditions: 336 h
# [20] = system: Mycobacterium tuberculosis; test: Antitubercular activity against isoniazid/rifampicin/ethambutol/pyrazinamide/streptomycin/kanamycin/para-aminosalicylic acid/prothionamide-resistant Mycobacterium tuberculosis K33b00MR assessed as inhibition of bacterial growth incubated for 2 weeks; conditions: 336 h
# [21] = system: Mycobacterium tuberculosis; test: Antitubercular activity against rifampicin/isoniazid/streptomycin/prothionamide-resistant Mycobacterium tuberculosis NIHB43 assessed as inhibition of bacterial growth incubated for 2 weeks; conditions: NIHB43, 336 h
# [22] = system: Mycobacterium tuberculosis; test: Antitubercular activity against isonizaid/rifampicin/ethambutol/rifabutin-resistant Mycobacterium tuberculosis NIH_G22R assessed as inhibition of bacterial growth incubated for 2 weeks; conditions: 336 h
# [23] = system: Mycobacterium tuberculosis; test: Antitubercular activity against ethionamide-resistant Mycobacterium tuberculosis NIH_G145 assessed as inhibition of bacterial growth incubated for 2 weeks; conditions: NIH_G145, 336 h
# [24] = system: Mycobacterium tuberculosis; test: Antitubercular activity against isonizaid/rifampicin/rifabutin-resistant Mycobacterium tuberculosis NIHA37 assessed as inhibition of bacterial growth incubated for 2 weeks; conditions: NIHA37, 336 h
# [25] = system: Mycobacterium tuberculosis; test: Antitubercular activity against isoniazid/ofloxacin/prothionamide-resistant Mycobacterium tuberculosis NIH1B127 assessed as inhibition of bacterial growth incubated for 2 weeks; conditions: NIH1B127, 336 h
# [26] = system: Mycobacterium tuberculosis; test: Antitubercular activity against isoniazid/rifampicin/ethambutol/pyrazinamid/rifabutin/prothionamide-resistant Mycobacterium tuberculosis K25b00MR assessed as inhibition of bacterial growth incubated for 2 weeks; conditions: 336 h
# [27] = system: Mycobacterium tuberculosis; test: Antitubercular activity against extensively drug-resistant Mycobacterium tuberculosis 028K111 assessed as inhibition of bacterial growth incubated for 2 weeks; conditions: 028K111, 336 h
# [28] = system: Mycobacterium tuberculosis; test: Antitubercular activity against isoniazid/ethambutol/prothionamide/D-cycloserine/ofloxacin/levofloxacin/pyrazinamide-resistant Mycobacterium tuberculosis NIH1B314 assessed as inhibition of bacterial growth incubated for 2 weeks; conditions: NIH1B314, 336 h
# [29] = system: Mycobacterium tuberculosis; test: Antitubercular activity against isoniazid/rifampicin/moxifloxacin-resistant Mycobacterium tuberculosis NIH_G367DR assessed as inhibition of bacterial growth incubated for 2 weeks; conditions: 336 h
# [30] = system: Mycobacterium tuberculosis; test: Antitubercular activity against streptomycin/D-cycloserine-resistant Mycobacterium tuberculosis NIH_G169 assessed as inhibition of bacterial growth incubated for 2 weeks; conditions: NIH_G169, 336 h
# [31] = system: Mycobacterium tuberculosis; test: Antitubercular activity against extensively drug-resistant Mycobacterium tuberculosis 026K111 assessed as inhibition of bacterial growth incubated for 2 weeks; conditions: 026K111, 336 h
# [32] = system: Mycobacterium tuberculosis; test: Antitubercular activity against ethambutol/D-cycloserine-resistant Mycobacterium tuberculosis NIH_G11R assessed as inhibition of bacterial growth incubated for 2 weeks; conditions: 336 h
# [33] = system: Mycobacterium tuberculosis; test: Antitubercular activity against isoniazid/rifampicin/ethambutol/para-aminosalicylic acid/kanamycin/ofloxacin/prothionamide-resistant Mycobacterium tuberculosis Kb019 assessed as inhibition of bacterial growth incubated for 2 weeks; conditions: Kb019, 336 h
# [34] = system: Mycobacterium tuberculosis; test: Antitubercular activity against extensively drug-resistant Mycobacterium tuberculosis clinical strain X37b00XR assessed as inhibition of bacterial growth incubated for 2 weeks; conditions: 336 h
# [35] = system: Mycobacterium tuberculosis; test: Antitubercular activity against isoniazid/rifampicin/ethambutol/pyrazinamide/prothionamide/ofloxacin/levofloxacin/rifabutin-resistant Mycobacterium tuberculosis NIHB270 assessed as inhibition of bacterial growth incubated for 2 weeks; conditions: NIHB270, 336 h
# [36] = system: Mycobacterium tuberculosis; test: Antitubercular activity against isoniazid/rifampicin/streptomycin/para-aminosalicylic acid/ofloxacin-resistant Mycobacterium tuberculosis K29b00MR assessed as inhibition of bacterial growth incubated for 2 weeks; conditions: 336 h
# [37] = system: Mycobacterium tuberculosis; test: Antitubercular activity against extensively drug-resistant Mycobacterium tuberculosis NIHB13 assessed as inhibition of bacterial growth incubated for 2 weeks; conditions: NIHB13, 336 h
# [38] = system: Mycobacterium tuberculosis; test: Antitubercular activity against isoniazid/ethionamide/D-cycloserine-resistant Mycobacterium tuberculosis NIH_G17R assessed as inhibition of bacterial growth incubated for 2 weeks; conditions: 336 h
# [39] = system: Mycobacterium tuberculosis; test: Antitubercular activity against isoniazid/rifampicin/ethambutol/streptomycin/D-cycloserine/rifabutin-resistant Mycobacterium tuberculosis NIH_G19R assessed as inhibition of bacterial growth incubated for 2 weeks; conditions: 336 h
# [40] = system: Mycobacterium tuberculosis; test: Antitubercular activity against isoniazid/rifampicin/ethambutol/streptomycin-resistant Mycobacterium tuberculosis K21b00MR assessed as inhibition of bacterial growth incubated for 2 weeks; conditions: 336 h
# [41] = system: Mycobacterium tuberculosis; test: Antitubercular activity against isoniazid/rifampicin/kanamycin/pyrazinamide/capreomycin/amikacin/prothionamide/D-cycloserine-resistant Mycobacterium tuberculosis K32b00MR assessed as inhibition of bacterial growth incubated for 2 weeks; conditions: 336 h
# [42] = system: Mycobacterium tuberculosis; test: Antitubercular activity against extensively drug-resistant Mycobacterium tuberculosis NIH1B250 assessed as inhibition of bacterial growth incubated for 2 weeks; conditions: NIH1B250, 336 h
# [43] = system: Mycobacterium tuberculosis; test: Antitubercular activity against isonizaid/rifampicin/streptomycin/ethionamide-resistant Mycobacterium tuberculosis NIH_G79 assessed as inhibition of bacterial growth incubated for 2 weeks; conditions: NIH_G79, 336 h
compound,measurement,setting,value
COc1nc2ccc(Br)cc2cc1[C@@H](c1ccccc1)[C@@](O)(CCN(C)C)c1cccc2ccccc12 [BEDAQUILINE],MIC,[1],0.07 µM
same,MIC,[2],0.1 µM
same,MIC,[3],0.3 µM
same,MIC,[4],0.1 µM
same,MIC,[5],0.05 µM
same,MIC,[6],0.04 µM
same,MIC,[7],0.1 µM
same,MIC,[8],0.05 µM
same,MIC,[9],0.05 µM
same,MIC,[10],0.1 µM
same,MIC,[11],0.15 µM
same,MIC,[12],< 0.02 µM
same,MIC,[13],0.05 µM
same,MIC,[14],< 0.02 µM
same,MIC,[15],0.02 µM
same,MIC,[16],0.02 µM
same,MIC,[17],0.1 µM
same,MIC,[18],0.04 µM
same,MIC,[19],0.04 µM
same,MIC,[20],0.07 µM
same,MIC,[21],0.05 µM
same,MIC,[22],0.1 µM
same,MIC,[23],0.2 µM
same,MIC,[24],0.05 µM
same,MIC,[25],0.1 µM
same,MIC,[26],0.1 µM
same,MIC,[27],0.15 µM
same,MIC,[28],< 0.02 µM
same,MIC,[29],< 0.02 µM
same,MIC,[30],0.15 µM
same,MIC,[31],0.2 µM
same,MIC,[32],0.15 µM
same,MIC,[33],0.07 µM
same,MIC,[34],0.1 µM
same,MIC,[35],0.07 µM
same,MIC,[36],0.2 µM
same,MIC,[37],0.05 µM
same,MIC,[38],0.1 µM
same,MIC,[39],0.1 µM
same,MIC,[40],0.07 µM
same,MIC,[41],0.1 µM
same,MIC,[42],0.07 µM
same,MIC,[43],0.07 µM

# From ChEMBL document CHEMBL5370592, “Synthesis and Structure-Activity Relationships of a New Class of Oxadiazoles Targeting DprE1 as Antitubercular Agents” (ACS Med Chem Lett, 2023)
